In this assay the target is SIRT6 enzyme (Homo sapiens, UniProt Q8N6T7). Nature of the assay: Measurement of deacetylation activity (SIRT6, AlphaLISA, H3K9(Ac) peptide). It is filed as biochemical. The settings on record: SIRT6 25 ng/mL, H3K9(Ac) biotin peptide 2 nM, NAD 10 μM, room temperature 30 minutes, duplicate. In outline: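 SIRT6 (25 ng/mL final) in Tris-HCl pH 8.0 buffer with compound (e.g. 0.046–100 μM final) reacted with biotin-H3K9(Ac) peptide (2 nM) and NAD+ (10 μM), 30 min, room temperature. Stopped with nicotinamide plus AlphaLISA anti-unmodified H3K9/K27 beads, 60 min; EC150 (150% relative activity) from sigmoidal fit.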
SIRT6 enzyme, sequence (Q8N6T7 whole entry, species assumed): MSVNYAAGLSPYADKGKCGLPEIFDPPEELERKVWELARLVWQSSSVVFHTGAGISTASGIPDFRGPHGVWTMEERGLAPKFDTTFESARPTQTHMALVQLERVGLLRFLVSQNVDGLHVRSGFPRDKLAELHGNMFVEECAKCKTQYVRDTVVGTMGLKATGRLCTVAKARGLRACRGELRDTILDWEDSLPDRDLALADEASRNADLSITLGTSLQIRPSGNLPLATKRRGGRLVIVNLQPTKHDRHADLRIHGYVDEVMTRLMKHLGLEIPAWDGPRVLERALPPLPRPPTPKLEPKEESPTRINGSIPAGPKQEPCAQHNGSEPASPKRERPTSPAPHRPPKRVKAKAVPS
A general note: Bead proximity is the source of the signal in Alpha formats.
Turning to `COc1cccc(-c2cnc(N3[C@@H]4COC[C@H]3c3sc(NC(=O)N[C@H](C)CO)nc3C4)o2)n1` [Example 67, N-[(2R)-1-hydroxypropan-2-yl]-N′-{(4S,8S)-10-[5-(6-methoxypyridin-2-yl)-1,3-oxazol-2-yl]-4,7,8,9-tetrahydro-5H-4,8-epiminooxocino[5,4-d][1,3]thiazol-2-yl}urea], the “EC150 (the concentration of the compound showing a relative enzyme activity of 150%)” value amounted to 0.75 μm.

For the compound `CNC(=O)Nc1nc2c(s1)[C@@H]1COC[C@H](C2)N1c1nc2cc(OC)ccc2o1` [Example 48, N-[(4S,8S)-10-(5-methoxy-1,3-benzoxazol-2-yl)-4,7,8,9-tetrahydro-5H-4,8-epiminooxocino[5,4-d][1,3]thiazol-2-yl]-N′-methylurea], the “EC150 (the concentration of the compound showing a relative enzyme activity of 150%)” value is 1.2 μm.

Turning to `O=C(Nc1nc2c(s1)[C@@H]1COC[C@H](C2)N1c1nc2cc(Cl)ccc2o1)N[C@H]1CC[C@H](O)CC1` [Example 149, N-[(4S,8S)-10-(5-chloro-1,3-benzoxazol-2-yl)-4,7,8,9-tetrahydro-5H-4,8-epiminooxocino[5,4-d] [1,3]thiazol-2-yl]-N′-[(1r,4r)-4-hydroxycyclohexyl]urea], the “EC150 (the concentration of the compound showing a relative enzyme activity of 150%)” value is reported as 0.45 μm.

Take `O=C(NCc1cc[nH]c(=O)c1)Nc1nc2c(s1)CN(c1nc(C3CCC(F)(F)CC3)no1)CC2` [Example 101, N-{5-[3-(4,4-difluorocyclohexyl)-1,2,4-oxadiazol-5-yl]-4,5,6,7-tetrahydro[1,3]thiazolo[5,4-c]pyridin-2-yl}-N′-[(2-oxo-1,2-dihydropyridin-4-yl)methyl]urea]: the “EC150 (the concentration of the compound showing a relative enzyme activity of 150%)” value is 1.1 μm.

Consider `COc1cccc(-c2cc(N3[C@@H]4COC[C@H]3c3sc(NC(=O)N[C@H]5CCOC5)nc3C4)no2)n1` [Example 162, N-{(4S,8S)-10-[5-(6-methoxypyridin-2-yl)-1,2-oxazol-3-yl]-4,7,8,9-tetrahydro-5H-4,8-epiminooxocino[5,4-d][1,3]thiazol-2-yl}-N′-[(3S)-oxolan-3-yl]urea], for which the “EC150 (the concentration of the compound showing a relative enzyme activity of 150%)” value came out at 3.3 μm.

Consider `CC(C)(O)CNC(=O)Nc1nc2c(s1)[C@@H]1COC[C@H](C2)N1c1nc2cc(OCF)ccc2o1` [Example 57, N-{(4S,8S)-10-[5-(fluoromethoxy)-1,3-benzoxazol-2-yl]-4,7,8,9-tetrahydro-5H-4,8-epiminooxocino[5,4-d][1,3]thiazol-2-yl}-N′-(2-hydroxy-2-methylpropyl)urea], for which the “EC150 (the concentration of the compound showing a relative enzyme activity of 150%)” value was found to be 0.93 μm.

As for `CC(C)NC(=O)Nc1nc2c(s1)[C@@H]1COC[C@H](C2)N1c1nnc(-c2cccc(C(=O)C3CC3)c2)o1` [Example 117, N-[(4S,8S)-10-{5-[3-(cyclopropanecarbonyl)phenyl]-1,3,4-oxadiazol-2-yl}-4,7,8,9-tetrahydro-5H-4,8-epiminooxocino[5,4-d][1,3]thiazol-2-yl]-N′-propan-2-ylurea], the “EC150 (the concentration of the compound showing a relative enzyme activity of 150%)” value is reported as 1 μm.

Turning to `C[C@H](CO)NC(=O)Nc1nc2c(s1)CN(c1nc(C3CCC(F)(F)CC3)no1)CC2` [Example 5, N-{5-[3-(4,4-difluorocyclohexyl)-1,2,4-oxadiazol-5-yl]-4,5,6,7-tetrahydro[1,3]thiazolo[5,4-c]pyridin-2-yl}-N′-[(2R)-1-hydroxypropan-2-yl]urea], the “EC150 (the concentration of the compound showing a relative enzyme activity of 150%)” value was 1.5 μm.

Regarding `CNC(=O)Nc1nc2c(s1)CN(c1nc(C3CCC(F)(F)CC3)no1)CC2` [Example 1, N-{5-[3-(4,4-difluorocyclohexyl)-1,2,4-oxadiazol-5-yl]-4,5,6,7-tetrahydro[1,3]thiazolo[5,4-c]pyridin-2-yl}-N′-methylurea], the “EC150 (the concentration of the compound showing a relative enzyme activity of 150%)” value amounted to 1.7 μm.

Regarding `CNC(=O)Nc1nc2c(s1)CN(c1nc(C3CCCC(F)(F)C3)no1)CC2` (stereo not shown) [Example 36, N-{5-[3-(3,3-difluorocyclohexyl)-1,2,4-oxadiazol-5-yl]-4,5,6,7-tetrahydro[1,3]thiazolo[5,4-c]pyridin-2-yl}-N′-methylurea], the “EC150 (the concentration of the compound showing a relative enzyme activity of 150%)” value was found to be 1.9 μm.

The record behind these values is patent US11981686B2, “Urea compound having substituent” (DAIICHI SANKYO COMPANY, LIMITED, priority 2019, dated 2024).
